Assay results published in patent publication US20230082358A1, “3D PRINTED UV CROSSLINKING MASKS” (University of Maryland, College Park, priority 2021, published 2023).

Assays:
Assay type in all cases: cell-based
[1] = tested on: Human umbilical artery endothelial cells (HUAECs); experiment: HUAECs heparin release study, vWF immunostaining; conditions: 48 h, p<0.05
Method: HUVECs were seeded in 96-well plates at a density of 3,500 cells/well in 235 μL of Medium 200 (with LSGS). Cells were left overnight to adhere before medium was replaced with 200 μL of treatment medium, which contained 0.1, 1, 10, 100, or 1000 μg/mL heparin in Medium 200 (with LSGS), while the control was medium only. The medium was replaced daily for the duration of this study. Cells were fixed with 10% formalin and permeabilized. Wells were treated overnight with anti-von Willebrand factor antibody (1:200, 100 μL, ab9378, Abcam, Cambridge, Mass.). The secondary antibody used was Alexa Fluor 633 (4 μg/mL, Invitrogen, Carlsbad, Calif.). Then the cells were stained with DAPI solution (3 μg/mL in PBS) for 10 min. […] MATLAB was used to quantify the intensity of the red channel and count the cells in the blue channel for 3 images of each of the 3 wells (n=9) to calculate a ratio of vWF intensity to number of cells.
(§1) Human umbilical artery endothelial cells (HUAECs) (Sigma-Aldrich) were seeded in MesoEndo Cell Growth Medium (Sigma-Aldrich) with the appropriate heparin treatment. […] Immunostaining and quantification was completed as described above at 48 h. Tissue factor pathway inhibitor (TFPI) was quantified with DuoSet ELISA kit (R&D Systems, Minneapolis, Minn.) according to the manufacturer's protocol. […]

[2] = tested on: Human umbilical artery endothelial cells (HUAECs); experiment: HUAECs heparin release study, phalloidin (F-actin) staining; conditions: heparin profiles A, B, C; 48 h; p>0.05
Method: (§2) HUVECs were treated in culture with treatment medium for 72 h. Treatment medium contained 0.1, 1, 10, 100, or 1000 μg/mL heparin in Medium 200 (with LSGS), while the control was medium only. The medium was replaced daily for the duration of this study. Cells were seeded in 96-well plate at a density of 30,000 cells/well in 200 μL of Medium 200 (with LSGS). Cells were left to adhere for 2 h before the medium was removed. Cells were fixed with 10% formalin and permeabilized. Wells were stained for 1 h with Alexa Fluor 488 Phalloidin (1:100, 100 μL, A12379, Invitrogen). Then the cells were stained with DAPI solution (3 μg/mL in PBS) for 10 min. Wells were imaged with an Eclipse Ti2 microscope under FITC excitation (465-495 nm) and emission (515-555 nm) and DAPI excitation (340-380 nm) and emission (435-485 nm). MATLAB was used to quantify the area of the green channel and count the cells in the blue channel for 3 images of each of the 3 wells (n=9) to calculate a ratio of F-actin area to number of cells.
as §1

[3] = tested on: Human umbilical artery endothelial cells (HUAECs); experiment: HUAECs heparin release study, TFPI ELISA; conditions: for release of TFPI: after 48 h, comparable to 0 μg/mL, more than profiles A and B
Method: Human umbilical artery endothelial cells (HUAECs) (Sigma-Aldrich) were seeded in MesoEndo Cell Growth Medium (Sigma-Aldrich) with the appropriate heparin treatment. For XTT and TFPI ELISA measurements, cells were seeded in a 24-well plate at a density of 150,000 cells/well in 1.8 mL of medium, while for immunostaining, cells were seeded in a 96-well plate at a density of 25,000 cells/well in 300 µL of medium. Treatment medium contained the heparin concentrations detailed in Table 1. One control group was medium only, while the other control group contained 30 μg/mL heparin, an estimate of heparin concentration during surgery. The medium was replaced at 8, 24, and 48 h. XTT was conducted as described above at 24 and 48 h. Immunostaining and quantification was completed as described above at 48 h. Tissue factor pathway inhibitor (TFPI) was quantified with DuoSet ELISA kit (R&D Systems, Minneapolis, Minn.) according to the manufacturer's protocol. The ladder and all samples were run in triplicate (n=9).

[4] = tested on: Human umbilical vein endothelial cells (HUVECs); experiment: Scratch assay, HUVECs; conditions: p<0.05
Method: HUVECs were treated in culture with treatment medium for 48 h. Treatment medium contained 0.1, 1, 10, 100, or 1000 μg/mL heparin in Medium 200 (with LSGS), while the control was medium only. The medium was replaced daily for the duration of this study. A 48-well plate was treated for 45 min with 200 μL of 0.1% wt/vol porcine gelatin (Sigma-Aldrich, St. Louis, Mo.) in DI water at 37° C. Cells were seeded in the well plate at a density of 100,000 cells/well in 800 μL of Medium 200 (with LSGS). Cells were left to adhere for 24 h before the medium was replaced. Scratches were made with a 200 μL pipette tip. Cells were imaged for 1 to 16 h after the scratches were made. ImageJ was used to quantify the gap distance in one image for each well (n=6). Gap closure (%) was reported as
where lo is the original gap length and lt is the gap length at a given time. The gap closure speed was defined as the slope of gap length curve with respect to time and was normalized to that of the 0 μg/mL group.

[5] = tested on: Human umbilical vein endothelial cells (HUVECs); experiment: vWF immunostaining, HUVECs; conditions: higher heparin concentrations; up to 120 h
Method: HUVECs were seeded in 96-well plates at a density of 3,500 cells/well in 235 μL of Medium 200 (with LSGS). Cells were left overnight to adhere before medium was replaced with 200 μL of treatment medium, which contained 0.1, 1, 10, 100, or 1000 μg/mL heparin in Medium 200 (with LSGS), while the control was medium only. The medium was replaced daily for the duration of this study. Cells were fixed with 10% formalin and permeabilized. Wells were treated overnight with anti-von Willebrand factor antibody (1:200, 100 μL, ab9378, Abcam, Cambridge, Mass.). The secondary antibody used was Alexa Fluor 633 (4 μg/mL, Invitrogen, Carlsbad, Calif.). Then the cells were stained with DAPI solution (3 μg/mL in PBS) for 10 min. Wells were imaged with an Eclipse Ti2 microscope (Nikon, Tokyo, Japan) under Cy5 excitation (625-650 nm) and emission (670 nm) and DAPI excitation (340-380 nm) and emission (435-485 nm). MATLAB was used to quantify the intensity of the red channel and count the cells in the blue channel for 3 images of each of the 3 wells (n=9) to calculate a ratio of vWF intensity to number of cells.

[6] = tested on: Human umbilical vein endothelial cells (HUVECs); experiment: Cell metabolic activity assay (XTT), HUVECs; conditions: 100 and 1000 μg/mL heparin; 24, 72 and 120 h; p<0.05
Method: (§3) Human umbilical vein endothelial cells (HUVECs) (ThermoFisher Scientific, Waltham, Mass.) were seeded in 48-well plates at a density of 10,000 cells/well in 1 mL of Medium 200 (with manufacturer's required Low Serum Growth Supplement LSGS, ThermoFisher Scientific). Cells were left overnight to adhere before medium was replaced with 1 mL of treatment medium, which contained 0.1, 1, 10, 100, or 1000 μg/mL heparin in Medium 200 (with LSGS), while the control was medium only. The medium was replaced daily for the duration of this study. The electron coupling and XTT labeling reagents from the Cell Proliferation Kit II (XTT) (Roche, Mannheim, Germany) were mixed according to the manufacturer's protocol and added to the cell medium in a ratio of 1 to 2. Cell medium was removed from the wells and the XTT solution was added. It was incubated for 4 h and 100 μL was extracted in triplicate (n=9). The absorbance was measured with a Spark Multimode Microplate Reader (Tecan, Männedorf, Switzerland). Net absorbance was calculated (A475-A650) for each sample and XTT fold change was calculated by normalizing the net absorbance to that at 4 h.

[7] = tested on: Human umbilical vein endothelial cells (HUVECs); experiment: Actin immunostaining / adhesion, HUVECs; conditions: 72 h treatment
Method: as §2

[8] = tested on: Human umbilical artery endothelial cells (HUAECs); experiment: HUAECs heparin release study, XTT
Method: as §3, with “Cell medium was removed from the wells and the XTT solution was added. It was incubated for 4 h and 100 μL was extracted in triplicate (n=9).” left out
as §1

Q: What does the source list for heparin?
A: vWF intensity, profile A versus profile C [1]: higher; phalloidin (F-actin) area ratio [2]: not impacted; release of TFPI ([3]; 30 μg/mL heparin): highest release of TFPI; tissue factor pathway inhibitor (TFPI) produced ([3]; heparin profile A, after 24 and 48 h, p<0.05): significantly less; release of TFPI ([3]; heparin profile C): highest release of TFPI; gap closure over 16 h ([4]; 1, 10, 100 and 1000 μg/mL heparin): significantly decreases; gap closure speed (normalized to 0 μg/mL) ([4]; 10, 100 and 1000 μg/mL heparin): significantly decreases; vWF expression (ratio of vWF intensity to number of cells) [5]: upward trend; XTT metabolic activity compared to 0 μg/mL heparin [6]: significantly decreased; number of cells adhered after 2 h, compared to 0 μg/mL ([7]; 1000 μg/mL heparin, p<0.05): significantly lower; ratio of F-actin area to number of cells, compared to 0 μg/mL ([7]; 1000 μg/mL heparin, p<0.05): significantly lower; number of cells adhered after 2 h ([7]; 0.1 and 1 μg/mL heparin): support; ratio of F-actin area to number of cells ([7]; 0.1 and 1 μg/mL heparin): support; XTT metabolic activity of HUAECs at 48 h (normalized to 0 μg/mL) ([8]; heparin profile A (246/122/118 μg/mL at 0-8/8-24/24-48 h)): reduces; XTT metabolic activity and vWF expression of HUAECs ([8]; slower heparin profiles B and C): unaffected
